“And” between values parts separate entries of the source, which are not always exact repeats. Equal values may be shown once.
How the values were obtained:
[1] = tested on: HCT116 p53 negative cells
Description: (§1) Breast cancer cells were seeded at various concentrations, ranging from 1×10^5 to 2.5×10^5 per well according to cell growth rate, into 6-well plates 24 hours before siRNA and/or compound treatment. Each 10 mM stock solution in 100% DMSO of the compounds was diluted with Opti-MEM I Reduced-Serum Medium (Invitrogen, Canada) and added to the cells to the stated final concentrations. Control cells received 0.001% DMSO alone. Where indicated, 40 nM PTEN siRNAs (siPTEN) (QIAGEN, Canada; sense sequence: 5′-[…]-3′) or 40 nM control siRNA (siCTRL) (QIAGEN, Canada) were transfected into cells using Lipofectamine 2000 according to the manufacturer's protocol (Invitrogen, Canada). Prior to analysis, cells were trypsinized, washed in 1× phosphate-buffered saline (PBS) and centrifuged. […] All samples were read in a FACSCalibur flow cytometer (Becton, Dickinson and Company), and data analyzed using FloJo software (Tree Star, Inc.).
(§2) To explore if PTEN status may be a contributing factor in determining if PLK4 inhibitor treatment induces a cell death response in cancer cells, a test of whether reducing the levels of endogenous PTEN would sensitize HCT116 cells (either p53 wild-type or negative) to PLK4 compound-induced death (FIG. 7) was performed. […] After two days of inhibitor treatment, the percentage of sub-G1 cells was measured by cell cycle analysis.

[2] = tested on: HCT116 p53 wild-type cells
Description: as §1, §2

[3] = tested on: MDA-MB-231 breast cancer cell line; assay: Cell growth inhibition, SRB assay, extended panel; type: cell-based; conditions: Homo sapiens, MDA-MB-231, read-out: GI50 Range MDA-MB-231
Description: Breast cancer and normal cells were seeded at various concentrations, ranging from 1500 to 4000 per 80 μl according to cell growth rate, into 96-well plates 24 hours before compound overlay. Each 10 mM stock solution in 100% DMSO of the compounds was diluted with Opti-MEM I Reduced-Serum Medium (Invitrogen, Canada) to make concentration ranges from 50 nM to 250 μM. 20 μl from each concentration was added to the cells to make the final concentration range from 10 nM to 50 μM. The cells were cultured at 37° C. for 5 days before the Sulforhodamine B (SRB) assay was performed to assess cell survival. SRB is a water-soluble dye that binds to the basic amino acids of cellular proteins. Thus, colorimetric measurement of the bound dye provides an estimate of the total protein mass and is related to cell number. The cells were fixed in situ by gently aspirating off the culture media and adding 50 μl ice-cold 10% Tri-chloroacetic Acid (TCA) per well and incubation at 4° C. for 30-60 min. The plates were washed with tap water five times and allowed to air dry for 5 min. […] Absorbances were read at 570 nm. The cell survival percentage at each compound concentration was calculated over the cell DMSO control, which was growing in the presence of 0.1% DMSO (0.5% in the case of 50 μM compounds). Cell viability GI50 values were calculated using GraphPad PRISM software (GraphPad Software, Inc.).

Compound	percentage of sub-G1 cells [1]	percentage of sub-G1 cells [2]	GI50 [3] [µM]
COc1ccc2c(c1)[C@@]1(C[C@@H]1c1ccc3c(-c4ccc(N5CCN(C)CC5)nc4)n[nH]c3c1)C(=O)N2 (racemic) [Compound 2]	5.4% and 10.3%	7.1% and 15.9%	
COc1ccc2c(c1)/C(=C\c1ccc3c(/C=C/c4ccc(N5CCN(C)CC5)nc4)n[nH]c3c1)C(=O)N2 [Compound 3]			< 5

Reference: patent publication US8933070B2, “Methods of targeting PTEN mutant diseases and compositions therefor” (University Health Network, priority 2010, dated 2015)
